The values that follow come from US4707481A, “Pyridazinones, their preparation and use, and bronchospasmolytic medicaments containing pyridazinones” (BYK Gulden Lomberg Chemische Fabrik GmbH, priority 1983, dated 1987).

Usually Emax stands for the greatest response seen or fitted, relative to the assay's reference. The EC50 is the concentration at which the effect is half-maximal.

Read-outs that look alike come from different tables or passages of the source.

Data set [1] concerns guinea pig hearts isolated and perfused by the Langendorff method. Kind of data set: left-ventricular pressure and heart rate in isolated perfused Langendorff hearts. The conditions noted are these: for Emax: Cavia porcellus; for EC20 left-ventricular pressure: dose which leads to a 20% increase in left ventricular pressure. The source says:
After the animals have been sacrificed by a blow to the neck and exsanguination through the carotid arteries, the thoracic cavity is opened, and the aorta is exposed and looped up with a thread. A cannula, which is attached by tubing to the apparatus from which the nutrient solution slowly drops, is introduced in the direction of the heart and the heart is, quickly after removal from the thorax, connected to the perfusion apparatus. A balloon probe, connected to a Statham pressure sensor, is advanced through a cut through the left atrium into the left ventricle, and is provided with an initial pressure of 40 mm Hg. […] The nutrient solution flowing freely from the coronary sinus into the right atrium is measured with a flow […]) and, together with the change in the left-ventricular pressure and the heart rate determined from this, is recorded on a Watanabe recorder. The substances are administered in a volume of 0.1 ml of nutrient solution, in the dosage indicated in Tab.

The subject of the next data set is left ventricles of cats. Kind of data set: heart function dP/dtmax, left ventricle of anesthetized cats. The following applies: for increase in the heart rate or end-diastolic ventricular pressure / positive inotropic effects (increase in dP/dtmax) compared with comparison compounds: result in words. Format: in vivo, cat. The method, then:
The effect of the substances on the contractility of the heart in cats was tested on animals (.male., .female., 3.2 to 5.2 kg) under anesthesia with chloralose/urethane. The change in pressure in the left ventricle of the heart was measured with a tip catheter introduced through the right carotid artery, the R peak in the ECG (bipolar chest lead) initiating a signal to record the end-diastolic pressure; in addition, the maximum rate of pressure rise (dP/dtmax) was determined from the change in pressure. The heart rate was derived from the pressure waves. The test substances were administered intravenously. 2-6 animals were used per measurement, and the arithmetic mean was calculated from the results.

The test system of data set [2] is right ventricle of guinea pigs. Kind of data set: heart function dP/dtmax, right ventricle of anesthetized guinea pigs. The class given is in vivo, guinea pig. As for the experimental part: The effect of the substances on the contractility of the heart of guinea pigs is tested on animals (.male., 400 to 1000 g) under urethane anesthesia. The change in pressure in the right ventricle of the heart is measured with a tip catheter introduced through the right jugular vein and the maximum rate of pressure rise (dP/dtmax) is determined from this. The heart rate is derived from the pressure waves. […] The test substances were administered intravenously. 5-7 animals were used for each measurement, and the arithmetic mean was calculated from the results.

The subject of data set [3] is electrically stimulated left atrium of rats. Kind of data set: positive inotropic action on electrically stimulated left atrium in vitro. Further details: species or system rat. The conditions noted are these: for [EC40 pot.] theophylline / [EC40 pot.] substance: Column E, left atrium; for EC40: Rattus norvegicus, Column B, negative logarithm of EC40pot in mol/l, 40% increase in contraction force, read-out: -lg[EC40 pot.] left atrium (converted).

For data set [4], the system named is chain of tracheal rings of guinea pigs. Kind of data set: relaxing action on chain of tracheal rings in vitro (bronchospasmolytic action). Further details: species or system guinea pig. The following applies: for EC50: Cavia porcellus, Column A, negative logarithm of EC50 in mol/l, 50% of maximum relaxation by (-)isoprenaline, read-out: -lg[EC50] trachea (converted); for [EC40 pot.] left atrium / [EC50] trachea: Column C, measure of organ-selective activity; for [EC50] theophylline / [EC50] substance: Column D, trachea.
Procedure: The relaxing action of the 6-aryl-3[2H]pyridazinones I has been tested in vitro on a chain of tracheal rings (Tr.) of guinea pigs. […] The quotient of [EC40pot. ]left atrium and [ED50 ]trachea serves as a measure of the organ-selective activity.
The bronchospasmolytic action of the compounds on the chain of tracheal rings of the guinea pig was tested in vitro:
Four parallel chains of tracheal rings, each consisting of 6 individual rings, of guinea pigs(.male. and .female., 430-600 g) in an organ bath [5 ml, Krebs-Henseleit solution with added phentolamine (10^-5 mol/l), 37° C., initial tension of the organs 2 g, gassing with carbogen] develop a stable, spontaneous tonic contraction after about 20 to 30 minutes. […] Over a period of 20 to 30 minutes, a complete dose/action curve of the test substance is thus obtained. The particular relaxation is expressed as a percentage fraction of the maximum relaxation which can be achieved by administration of (-)isoprenaline (10^-6 mol/1). The concentration of the test substance which causes 50% of the maximum relaxation which can be achieved, expressed by the negative logarithm of the EC50 mol/l: -lg[EC50 ]is a measure of the bronchodilator activity.

Where [5] appears, read: 0.3 μmol/kg i.v., 0-10 min (Maximum).
[6] abbreviates: 1 μmol/kg i.v., 0-10 min (Maximum).
[7] abbreviates: 3 μmol/kg i.v., 0-10 min (Maximum).
[8] abbreviates: after 1000 nMol, read-out: Emax left-ventricular pressure.
Where [9] appears, read: at Emax, 1000 nMol, read-out: Percentage increase in heart rate at Emax.

In the case of `Nc1cc(-c2ccncc2)c[nH]c1=O` [Amrinone, amrinone, reference compound], the maximal response (Emax) in data set [1] (after 3000 nMol, read-out: Emax left-ventricular pressure) was determined as 35%; in data set [1] (at Emax, 3000 nMol, read-out: Percentage increase in heart rate at Emax) it was 8%. Moreover, the “Percentage increase in heart rate at EC20” value (from here on “Percentage increase”) in data set [1] was found to be 7%. Besides, the EC20 left-ventricular pressure in data set [1] was found to be 1410 nmol. Further, the “Percentage change in dP/dtmax” value is recorded as 17% in the data set on left ventricles of cats (1 μmol/kg i.v., 3 min); 6% with left ventricles of cats (1 μmol/kg i.v., 10 min); 7% with left ventricles of cats (1 μmol/kg i.v., 30 min); 23% in the data set on left ventricles of cats (1 μmol/kg i.v., 60 min); 52% with left ventricles of cats (3 μmol/kg i.v., 3 min); 42% in the data set on left ventricles of cats (3 μmol/kg i.v., 10 min). In addition, the “Percentage change in dP/dtmax” value is on record as 40% with left ventricles of cats (3 μmol/kg i.v., 30 min); 43% in the data set with left ventricles of cats (3 μmol/kg i.v., 60 min); 70% with left ventricles of cats (10 μmol/kg i.v., 3 min); 67% in the data set on left ventricles of cats (10 μmol/kg i.v., 10 min); 59% with left ventricles of cats (10 μmol/kg i.v., 30 min); 55% in the data set with left ventricles of cats (10 μmol/kg i.v., 60 min). Besides, the “Percentage change in dP/dtmax” value in data set [2] (setting [5]) was 33%; in data set [2] (0.3 μmol/kg i.v., 10 min) it was 8%; in data set [2] (0.3 μmol/kg i.v., 30 min), 13%; in data set [2] (setting [6]), 40%; in data set [2] (1 μmol/kg i.v., 10 min), 21%; in data set [2] (1 μmol/kg i.v., 30 min) it was 15%. Besides, the “Percentage change in dP/dtmax” value in data set [2] (setting [7]) is on record as 66%; in data set [2] (3 μmol/kg i.v., 10 min), 13%; in data set [2] (3 μmol/kg i.v., 30 min), 20%; in data set [2] (10 μmol/kg i.v., 0-10 min (Maximum)), 101%; in data set [2] (10 μmol/kg i.v., 10 min) it was 39%; in data set [2] (10 μmol/kg i.v., 30 min), 29%. The “Percentage change in dP/dtmax” value in data set [2] (30 μmol/kg i.v., 0-10 min (Maximum)) is 141%; in data set [2] (30 μmol/kg i.v., 10 min), 78%; in data set [2] (30 μmol/kg i.v., 30 min), 69%.
For `CCOc1ccc(-c2ccc(=O)[nH]n2)cc1OC` [Serial No. 4, 6-(4-ethoxy-3-methoxyphenyl)-3[2H]pyridazinone], in data set [3], the “[EC40 pot.] theophylline / [EC40 pot.] substance” value was 109. Besides, the EC40 in data set [3] was 3.8 µM. The maximum response (Emax) turned out to be 58% in data set [1] (after 300 nMol, read-out: Emax left-ventricular pressure) and 27% in data set [1] (at Emax, 300 nMol, read-out: Percentage increase in heart rate at Emax). Besides, the “Percentage increase” value in data set [1] came to 6%. Besides, the EC20 left-ventricular pressure in data set [1] is 22 nmol. In data set [4], the EC50 is 1320 nM. Besides, the “[EC40 pot.] left atrium / [EC50] trachea” value in data set [4] was 2.9. The “[EC50] theophylline / [EC50] substance” value in data set [4] stood at 102. For the same compound, the “Percentage change in dP/dtmax” value in data set [2] (setting [5]) is on record as 39%; in data set [2] (0.3 μmol/kg i.v., 10 min) it was 12%; in data set [2] (0.3 μmol/kg i.v., 30 min), 23%; in data set [2] (setting [6]) it was 140%; in data set [2] (1 μmol/kg i.v., 10 min), 26%; in data set [2] (1 μmol/kg i.v., 30 min), 56%. Besides, the “Percentage change in dP/dtmax” value in data set [2] (setting [7]) came out at 95%; in data set [2] (3 μmol/kg i.v., 10 min) it was 66%; in data set [2] (3 μmol/kg i.v., 30 min), 59%.
For the compound `C=CCOc1ccc(-c2ccc(=O)[nH]n2)cc1OC` [Serial No. 5, 6-(4-allyloxy-3-methoxyphenyl)-3[2H]pyridazinone], the “[EC40 pot.] theophylline / [EC40 pot.] substance” value in data set [3] amounted to 63.1. Besides, in data set [3], the EC40 was 6.61 µM. Moreover, the results for the Emax in data set [1] (setting [8]) and in data set [1] (setting [9]) were 185% and 9%, respectively. In addition, the “Percentage increase” value in data set [1] amounted to 3%. In data set [1], this compound gave an EC20 left-ventricular pressure of 14 nmol. In addition, the “Percentage change in dP/dtmax” value in the data set on left ventricles of cats (0.3 μmol/kg i.v., 3 min) is on record as 27%; with left ventricles of cats (0.3 μmol/kg i.v., 10 min), 12%; with left ventricles of cats (0.3 μmol/kg i.v., 30 min), 11%; in the data set with left ventricles of cats (0.3 μmol/kg i.v., 60 min), 13%; with left ventricles of cats (1 μmol/kg i.v., 3 min), 64%; in the data set on left ventricles of cats (1 μmol/kg i.v., 10 min), 25%. The “Percentage change in dP/dtmax” value is listed as 15% in the data set on left ventricles of cats (1 μmol/kg i.v., 30 min) and 20% with left ventricles of cats (1 μmol/kg i.v., 60 min). For the same compound, the “increase in the heart rate or end-diastolic ventricular pressure” value in the data set with left ventricles of cats is “without leading to any considerable increase in the heart rate or end-diastolic ventricular pressure”. In addition, the “positive inotropic effects (increase in dP/dtmax) compared with comparison compounds” value with left ventricles of cats is given as “stronger positive inotropic effects”. Moreover, in data set [4], the concentration giving a half-maximal response (EC50) was 1510 nM. The “[EC40 pot.] left atrium / [EC50] trachea” value in data set [4] is 4.4. Besides, the “[EC50] theophylline / [EC50] substance” value in data set [4] is given as 85.2.
Turning to `CCC(C)Oc1ccc(-c2ccc(=O)[nH]n2)cc1OC` (centres unmarked) [Serial No. 7, 6-(4-sec.-butoxy-3-methoxyphenyl)-3[2H]pyridazinone], in data set [3], the “[EC40 pot.] theophylline / [EC40 pot.] substance” value is 120. For the same compound, the EC40 in data set [3] was 3.47 µM. The values for the Emax in data set [1] (setting [8]) and in data set [1] (setting [9]) were 86% and 23%, respectively. In addition, the “Percentage increase” value in data set [1] stood at 3%. Moreover, in data set [1], the EC20 left-ventricular pressure is 13 nmol. The “Percentage change in dP/dtmax” value in the data set with left ventricles of cats (0.3 μmol/kg i.v., 3 min) was 36%; with left ventricles of cats (0.3 μmol/kg i.v., 10 min) it was 4%; with left ventricles of cats (0.3 μmol/kg i.v., 30 min), 1%; in the data set on left ventricles of cats (0.3 μmol/kg i.v., 60 min), 2%; in the data set with left ventricles of cats (1 μmol/kg i.v., 3 min), 90%; with left ventricles of cats (1 μmol/kg i.v., 10 min) it was 25%. For the same compound, the “Percentage change in dP/dtmax” value in the data set on left ventricles of cats (1 μmol/kg i.v., 30 min) amounted to 11%; with left ventricles of cats (1 μmol/kg i.v., 60 min) it was 11%. Besides, the “increase in the heart rate or end-diastolic ventricular pressure” value with left ventricles of cats was “without leading to any considerable increase in the heart rate or end-diastolic ventricular pressure”. Besides, in the data set on left ventricles of cats, the “positive inotropic effects (increase in dP/dtmax) compared with comparison compounds” value is “stronger positive inotropic effects”. In addition, the half-maximal effective concentration (EC50) in data set [4] is 1320 nM. Also, the “[EC40 pot.] left atrium / [EC50] trachea” value in data set [4] stood at 2.6. Moreover, in data set [4], the “[EC50] theophylline / [EC50] substance” value is recorded as 102.
Turning to `Cn1c(=O)c2[nH]cnc2n(C)c1=O.NCCN` [Theophylline-ethylenediamine, theophylline-ethylenediamine, reference compound], the “Percentage change in dP/dtmax” value is 8% in the data set on left ventricles of cats (3 μmol/kg i.v., 3 min); 2% in the data set on left ventricles of cats (3 μmol/kg i.v., 10 min); 2% in the data set with left ventricles of cats (3 μmol/kg i.v., 30 min); 1% with left ventricles of cats (3 μmol/kg i.v., 60 min); 62% in the data set on left ventricles of cats (10 μmol/kg i.v., 3 min); 30% in the data set with left ventricles of cats (10 μmol/kg i.v., 10 min). In addition, the “Percentage change in dP/dtmax” value with left ventricles of cats (10 μmol/kg i.v., 30 min) was found to be 22%; in the data set with left ventricles of cats (10 μmol/kg i.v., 60 min) it was 26%.
As for `CCOc1cc(-c2ccc(=S)[nH]n2)ccc1OC` [compound 14], in data set [3], the “[EC40 pot.] theophylline / [EC40 pot.] substance” value is given as 200 and the EC40 is 2.09 µM. Moreover, in data set [4], the half-maximal effective concentration (EC50) was 1410 nM, the “[EC40 pot.] left atrium / [EC50] trachea” value stood at 1.5 and the “[EC50] theophylline / [EC50] substance” value was 95.5.
Regarding `COc1ccc(-c2ccc(=S)[nH]n2)cc1OC(C)C` [compound 17], in data set [3], the “[EC40 pot.] theophylline / [EC40 pot.] substance” value amounted to 151 and the EC40 is 2.75 µM. Besides, in data set [4], the concentration giving a half-maximal response (EC50) is 7240 nM, the “[EC40 pot.] left atrium / [EC50] trachea” value is listed as 0.4 and the “[EC50] theophylline / [EC50] substance” value came to 18.6.
As to `COc1ccc(-c2ccc(=S)[nH]n2)cc1OCC(C)C` [compound 18], in data set [3], the “[EC40 pot.] theophylline / [EC40 pot.] substance” value is given as 166 and the EC40 was 1.58 µM. Further, in data set [4], the EC50 is 4070 nM, the “[EC40 pot.] left atrium / [EC50] trachea” value was 0.6 and the “[EC50] theophylline / [EC50] substance” value is 33.1.
